A word on the Kd: it is the constant that tells how readily two partners part at equilibrium.

Each structure is given as a SMILES string. The source made the active and inactive calls. Cut-off read from the data, not from the text of the source, for most assays here: actives have a measured Kd and inactives only a lower limit.

The target of assay [1] is T1, Serine/threonine-protein kinase Chk1 (Homo sapiens, UniProt O14757).
T1 sequence (O14757 whole entry): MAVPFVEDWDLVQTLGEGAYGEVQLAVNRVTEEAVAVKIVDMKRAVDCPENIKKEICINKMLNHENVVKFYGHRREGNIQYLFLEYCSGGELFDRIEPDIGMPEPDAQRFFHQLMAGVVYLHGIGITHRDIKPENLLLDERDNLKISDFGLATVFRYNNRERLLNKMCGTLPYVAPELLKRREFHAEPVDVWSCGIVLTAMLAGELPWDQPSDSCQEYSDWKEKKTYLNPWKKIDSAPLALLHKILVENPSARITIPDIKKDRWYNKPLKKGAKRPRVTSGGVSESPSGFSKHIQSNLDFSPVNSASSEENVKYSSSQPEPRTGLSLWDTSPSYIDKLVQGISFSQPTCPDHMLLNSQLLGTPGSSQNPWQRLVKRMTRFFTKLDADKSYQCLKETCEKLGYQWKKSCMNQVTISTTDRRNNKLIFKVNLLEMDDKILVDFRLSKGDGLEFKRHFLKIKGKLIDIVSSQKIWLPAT

Assay [2] concerns the target Structural maintenance of chromosomes protein 2 (Homo sapiens, UniProt O95347).
For assay [3], the target named is T2, Ephrin type-B receptor 2 (Homo sapiens, UniProt P29323).
T2 sequence (P29323 whole entry): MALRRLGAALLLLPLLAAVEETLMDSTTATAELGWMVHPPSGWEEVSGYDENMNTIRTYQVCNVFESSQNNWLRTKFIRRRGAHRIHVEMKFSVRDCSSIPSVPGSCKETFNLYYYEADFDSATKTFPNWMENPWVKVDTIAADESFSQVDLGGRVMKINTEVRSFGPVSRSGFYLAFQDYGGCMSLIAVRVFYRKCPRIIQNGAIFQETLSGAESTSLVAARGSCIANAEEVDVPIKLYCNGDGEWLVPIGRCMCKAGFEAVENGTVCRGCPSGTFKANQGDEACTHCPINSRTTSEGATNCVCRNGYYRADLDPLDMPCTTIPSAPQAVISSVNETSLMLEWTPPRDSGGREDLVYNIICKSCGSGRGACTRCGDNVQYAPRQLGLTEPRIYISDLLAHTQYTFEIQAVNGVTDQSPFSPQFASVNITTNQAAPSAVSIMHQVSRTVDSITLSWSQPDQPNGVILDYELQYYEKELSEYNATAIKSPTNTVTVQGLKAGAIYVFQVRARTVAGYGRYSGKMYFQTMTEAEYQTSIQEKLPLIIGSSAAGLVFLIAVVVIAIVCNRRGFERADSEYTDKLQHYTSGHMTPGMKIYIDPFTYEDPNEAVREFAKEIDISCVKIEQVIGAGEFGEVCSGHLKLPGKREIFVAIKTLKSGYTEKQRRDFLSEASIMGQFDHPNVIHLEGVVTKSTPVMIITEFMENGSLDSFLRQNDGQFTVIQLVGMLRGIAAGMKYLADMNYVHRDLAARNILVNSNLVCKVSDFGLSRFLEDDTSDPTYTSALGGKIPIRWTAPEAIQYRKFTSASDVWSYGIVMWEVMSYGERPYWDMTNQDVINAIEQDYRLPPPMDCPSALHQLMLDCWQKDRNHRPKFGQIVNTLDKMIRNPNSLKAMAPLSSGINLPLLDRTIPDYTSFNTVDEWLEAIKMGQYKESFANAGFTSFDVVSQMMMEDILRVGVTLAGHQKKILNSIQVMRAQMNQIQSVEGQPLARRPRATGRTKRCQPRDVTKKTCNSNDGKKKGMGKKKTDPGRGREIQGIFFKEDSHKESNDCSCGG

Assay [4] has as its target Serine/threonine-protein kinase PAK 2 (Homo sapiens, UniProt Q13177).
The target of assay [5] is T3, Serine/threonine-protein kinase ICK (Homo sapiens, UniProt Q9UPZ9).
T3 sequence (Q9UPZ9 whole entry): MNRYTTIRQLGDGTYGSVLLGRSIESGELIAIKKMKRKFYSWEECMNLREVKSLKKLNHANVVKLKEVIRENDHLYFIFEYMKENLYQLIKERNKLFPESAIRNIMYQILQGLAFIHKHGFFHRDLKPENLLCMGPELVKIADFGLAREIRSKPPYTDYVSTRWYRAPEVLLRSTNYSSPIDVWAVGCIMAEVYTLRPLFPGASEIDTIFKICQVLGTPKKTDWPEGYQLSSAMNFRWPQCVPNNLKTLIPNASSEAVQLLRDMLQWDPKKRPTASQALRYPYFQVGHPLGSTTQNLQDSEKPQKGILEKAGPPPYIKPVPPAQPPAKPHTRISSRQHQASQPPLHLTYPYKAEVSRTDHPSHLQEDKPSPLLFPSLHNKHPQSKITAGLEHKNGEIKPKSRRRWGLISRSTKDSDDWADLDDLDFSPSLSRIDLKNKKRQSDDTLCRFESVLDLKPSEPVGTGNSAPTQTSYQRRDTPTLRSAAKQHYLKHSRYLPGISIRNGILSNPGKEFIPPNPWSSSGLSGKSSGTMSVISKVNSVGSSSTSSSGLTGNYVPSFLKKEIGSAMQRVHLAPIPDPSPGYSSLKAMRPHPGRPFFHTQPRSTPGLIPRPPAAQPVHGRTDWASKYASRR

Assay [6] has as its target T4, Aurora kinase A (Homo sapiens, UniProt O14965).
T4 sequence (O14965 whole entry): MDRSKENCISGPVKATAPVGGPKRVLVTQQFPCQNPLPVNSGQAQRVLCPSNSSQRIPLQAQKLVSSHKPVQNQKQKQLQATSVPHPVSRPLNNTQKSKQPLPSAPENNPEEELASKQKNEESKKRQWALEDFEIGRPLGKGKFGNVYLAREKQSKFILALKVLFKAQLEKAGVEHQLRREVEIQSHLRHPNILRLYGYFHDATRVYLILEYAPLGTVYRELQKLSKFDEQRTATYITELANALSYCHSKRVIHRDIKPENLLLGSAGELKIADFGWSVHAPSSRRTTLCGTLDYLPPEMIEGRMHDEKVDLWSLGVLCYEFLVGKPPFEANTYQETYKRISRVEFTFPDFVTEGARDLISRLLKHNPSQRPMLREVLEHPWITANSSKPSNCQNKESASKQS

For assay [7], the target named is Macrophage-stimulating protein receptor (Homo sapiens, UniProt Q04912).
Chain of Macrophage-stimulating protein receptor (Q04912 25-304 limits assumed): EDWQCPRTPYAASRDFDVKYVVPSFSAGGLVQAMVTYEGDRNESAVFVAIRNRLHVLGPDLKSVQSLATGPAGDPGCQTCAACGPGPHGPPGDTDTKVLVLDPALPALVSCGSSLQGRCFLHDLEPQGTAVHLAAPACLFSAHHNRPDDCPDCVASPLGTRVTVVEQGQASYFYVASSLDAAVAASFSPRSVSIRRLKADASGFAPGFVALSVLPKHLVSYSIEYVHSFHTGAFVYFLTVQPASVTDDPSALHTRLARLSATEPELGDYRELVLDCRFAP
Chain of Macrophage-stimulating protein receptor (Q04912 310-1400 limits assumed): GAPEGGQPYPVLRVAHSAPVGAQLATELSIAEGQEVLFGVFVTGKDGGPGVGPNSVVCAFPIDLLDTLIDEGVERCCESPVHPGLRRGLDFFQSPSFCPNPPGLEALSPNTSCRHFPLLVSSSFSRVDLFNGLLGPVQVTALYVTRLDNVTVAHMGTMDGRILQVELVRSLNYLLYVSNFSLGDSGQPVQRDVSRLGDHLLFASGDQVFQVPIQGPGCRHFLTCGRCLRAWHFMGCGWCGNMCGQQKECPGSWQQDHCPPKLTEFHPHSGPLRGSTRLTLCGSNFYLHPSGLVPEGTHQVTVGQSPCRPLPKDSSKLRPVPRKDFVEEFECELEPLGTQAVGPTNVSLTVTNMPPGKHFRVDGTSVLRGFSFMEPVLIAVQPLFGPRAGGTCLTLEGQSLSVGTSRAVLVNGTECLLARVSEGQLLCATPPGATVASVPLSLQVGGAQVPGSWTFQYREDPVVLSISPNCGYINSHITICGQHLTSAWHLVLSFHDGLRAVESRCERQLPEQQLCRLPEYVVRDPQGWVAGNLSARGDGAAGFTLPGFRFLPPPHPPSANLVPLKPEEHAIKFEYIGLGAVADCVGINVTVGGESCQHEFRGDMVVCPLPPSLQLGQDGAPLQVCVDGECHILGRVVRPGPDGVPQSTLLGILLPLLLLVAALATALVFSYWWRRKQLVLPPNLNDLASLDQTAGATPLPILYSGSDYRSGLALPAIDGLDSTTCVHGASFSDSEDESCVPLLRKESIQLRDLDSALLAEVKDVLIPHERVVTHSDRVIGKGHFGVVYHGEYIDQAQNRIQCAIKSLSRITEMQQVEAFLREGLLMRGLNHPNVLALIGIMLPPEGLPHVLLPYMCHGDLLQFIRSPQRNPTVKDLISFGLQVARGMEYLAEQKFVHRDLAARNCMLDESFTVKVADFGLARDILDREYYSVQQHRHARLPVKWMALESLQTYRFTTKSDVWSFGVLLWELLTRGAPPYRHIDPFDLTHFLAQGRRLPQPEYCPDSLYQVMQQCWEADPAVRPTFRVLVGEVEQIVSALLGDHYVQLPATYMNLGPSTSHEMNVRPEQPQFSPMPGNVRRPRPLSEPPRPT
For assay [8], the target named is Calcium/calmodulin-dependent protein kinase kinase 2 (Homo sapiens, UniProt Q96RR4).
Chain of Calcium/calmodulin-dependent protein kinase kinase 2 (Q96RR4 whole entry, canonical isoform): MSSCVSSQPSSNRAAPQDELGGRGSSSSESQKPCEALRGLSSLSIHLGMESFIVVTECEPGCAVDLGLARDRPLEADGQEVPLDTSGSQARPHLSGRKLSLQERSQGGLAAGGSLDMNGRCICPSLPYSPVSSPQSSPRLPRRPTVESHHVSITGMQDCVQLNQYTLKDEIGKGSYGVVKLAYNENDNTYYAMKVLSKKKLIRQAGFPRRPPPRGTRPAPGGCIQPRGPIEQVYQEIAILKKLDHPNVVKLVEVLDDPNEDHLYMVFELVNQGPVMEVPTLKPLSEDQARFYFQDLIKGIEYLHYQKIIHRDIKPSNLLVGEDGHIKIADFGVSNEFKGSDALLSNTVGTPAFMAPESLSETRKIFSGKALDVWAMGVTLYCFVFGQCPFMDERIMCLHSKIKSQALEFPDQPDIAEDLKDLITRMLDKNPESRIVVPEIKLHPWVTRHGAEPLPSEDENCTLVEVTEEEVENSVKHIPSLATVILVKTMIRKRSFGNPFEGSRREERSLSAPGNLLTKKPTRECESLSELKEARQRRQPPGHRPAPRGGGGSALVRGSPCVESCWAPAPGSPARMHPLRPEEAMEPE
Assay [9] addresses Casein kinase I isoform epsilon (Homo sapiens, UniProt P49674).
The target in assay [10] is Cyclin-dependent kinase 1 (Homo sapiens, UniProt P06493).
Chain of Cyclin-dependent kinase 1 (P06493 whole entry): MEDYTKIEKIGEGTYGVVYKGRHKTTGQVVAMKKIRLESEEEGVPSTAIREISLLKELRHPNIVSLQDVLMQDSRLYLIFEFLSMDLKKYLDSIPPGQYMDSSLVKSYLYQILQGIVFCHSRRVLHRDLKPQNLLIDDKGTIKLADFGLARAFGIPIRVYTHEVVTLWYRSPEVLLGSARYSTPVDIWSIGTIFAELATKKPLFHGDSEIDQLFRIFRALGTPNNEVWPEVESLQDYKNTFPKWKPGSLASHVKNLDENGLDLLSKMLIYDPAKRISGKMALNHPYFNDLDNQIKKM
Note: in the data inactive means no Kd found up to 30 µM.

Chain of Serine/threonine-protein kinase PAK 2 (Q13177 whole entry): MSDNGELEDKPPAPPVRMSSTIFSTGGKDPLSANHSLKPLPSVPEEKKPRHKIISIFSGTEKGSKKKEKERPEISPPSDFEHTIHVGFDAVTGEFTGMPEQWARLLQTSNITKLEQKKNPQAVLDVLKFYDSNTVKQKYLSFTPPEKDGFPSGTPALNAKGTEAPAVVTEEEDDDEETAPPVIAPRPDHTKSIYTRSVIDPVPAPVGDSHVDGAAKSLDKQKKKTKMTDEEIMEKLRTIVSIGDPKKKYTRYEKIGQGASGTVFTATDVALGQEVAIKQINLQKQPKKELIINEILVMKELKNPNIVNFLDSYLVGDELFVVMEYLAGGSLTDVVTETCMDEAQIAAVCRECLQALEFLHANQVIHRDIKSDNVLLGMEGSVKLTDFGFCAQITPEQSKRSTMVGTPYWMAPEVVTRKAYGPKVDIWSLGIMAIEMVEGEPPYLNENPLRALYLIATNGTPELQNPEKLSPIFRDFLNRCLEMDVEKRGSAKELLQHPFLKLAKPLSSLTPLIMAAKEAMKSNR
Chain of Structural maintenance of chromosomes protein 2 (O95347 whole entry): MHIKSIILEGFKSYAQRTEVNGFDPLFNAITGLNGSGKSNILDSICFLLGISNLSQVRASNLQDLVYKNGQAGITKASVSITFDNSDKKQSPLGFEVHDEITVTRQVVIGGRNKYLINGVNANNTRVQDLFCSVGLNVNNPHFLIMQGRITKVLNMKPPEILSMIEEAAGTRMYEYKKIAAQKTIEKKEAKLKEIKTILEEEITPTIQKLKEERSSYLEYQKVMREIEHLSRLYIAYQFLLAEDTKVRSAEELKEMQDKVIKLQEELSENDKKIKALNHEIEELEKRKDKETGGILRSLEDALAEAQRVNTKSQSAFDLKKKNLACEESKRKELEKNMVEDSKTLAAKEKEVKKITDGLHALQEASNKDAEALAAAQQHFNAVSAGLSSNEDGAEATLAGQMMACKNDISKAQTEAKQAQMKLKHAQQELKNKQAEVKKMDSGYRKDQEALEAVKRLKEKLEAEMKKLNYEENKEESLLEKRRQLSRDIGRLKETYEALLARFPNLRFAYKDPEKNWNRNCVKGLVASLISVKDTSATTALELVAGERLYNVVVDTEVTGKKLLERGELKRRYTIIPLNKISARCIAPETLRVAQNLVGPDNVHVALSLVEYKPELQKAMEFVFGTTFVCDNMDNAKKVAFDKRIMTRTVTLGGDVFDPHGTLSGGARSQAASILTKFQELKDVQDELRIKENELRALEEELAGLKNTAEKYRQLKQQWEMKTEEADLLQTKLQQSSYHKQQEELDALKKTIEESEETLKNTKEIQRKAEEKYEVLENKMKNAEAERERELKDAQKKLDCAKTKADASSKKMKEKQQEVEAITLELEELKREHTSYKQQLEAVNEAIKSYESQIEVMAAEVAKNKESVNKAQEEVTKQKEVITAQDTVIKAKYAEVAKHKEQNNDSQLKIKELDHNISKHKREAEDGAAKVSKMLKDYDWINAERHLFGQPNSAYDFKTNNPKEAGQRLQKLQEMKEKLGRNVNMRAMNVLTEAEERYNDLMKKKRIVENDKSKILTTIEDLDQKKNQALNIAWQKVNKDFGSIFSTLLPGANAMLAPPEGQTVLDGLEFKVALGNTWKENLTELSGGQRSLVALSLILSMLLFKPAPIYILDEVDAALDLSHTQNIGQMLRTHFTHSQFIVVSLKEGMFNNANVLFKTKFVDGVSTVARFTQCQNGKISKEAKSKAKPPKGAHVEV
Chain of Casein kinase I isoform epsilon (P49674 whole entry, canonical isoform): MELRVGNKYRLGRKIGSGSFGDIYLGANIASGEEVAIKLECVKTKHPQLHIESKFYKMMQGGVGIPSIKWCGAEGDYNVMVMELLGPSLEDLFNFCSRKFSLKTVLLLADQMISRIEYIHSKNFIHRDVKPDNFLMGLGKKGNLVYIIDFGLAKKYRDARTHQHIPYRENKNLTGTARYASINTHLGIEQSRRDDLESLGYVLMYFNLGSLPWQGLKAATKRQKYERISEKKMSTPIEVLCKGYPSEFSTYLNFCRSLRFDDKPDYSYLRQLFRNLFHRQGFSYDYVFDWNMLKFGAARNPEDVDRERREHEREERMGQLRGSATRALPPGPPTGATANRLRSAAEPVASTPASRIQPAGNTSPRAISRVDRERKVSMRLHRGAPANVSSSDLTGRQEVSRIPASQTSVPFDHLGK

As for `CNC(=O)c1ccc(C)c(-n2c(C)cc(OCc3ccc(F)cc3F)c(Br)c2=O)c1` [PH-797804], the Kd in assay [1], in assay [2], in assay [3], in assay [4], in assay [5] and in [6] was > 30 µM (inactive) in each case. For the same molecule, the Kd in assay [7], in [8], in [9] and in assay [10] was > 30 µM (inactive) in each case.

Consider `CNC(=O)c1cc(Oc2ccc(NC(=O)Nc3ccc(Cl)c(C(F)(F)F)c3)c(F)c2)ccn1` [REGORAFENIB], for which the Kd in assay [1], in assay [2], in assay [3], in assay [4], in assay [5] and in assay [6] was > 30 µM (inactive) throughout. Moreover, the Kd in assay [7], in [8], in assay [9] and in [10] was > 30 µM (inactive) each time.

On to `COC(=O)N[C@@H](C)CNc1nccc(-c2cn(C(C)C)nc2-c2cc(Cl)cc(NS(C)(=O)=O)c2F)n1` [ENCORAFENIB], for which the Kd in [1], in assay [2], in assay [3], in [4], in assay [5] and in assay [6] was > 30 µM (inactive) each time. The Kd in assay [7], in [8], in [9] and in [10] was > 30 µM (inactive) in each case.

Consider `Cc1cc(-c2cc(O)ccc2Cl)cc2nnc(Nc3ccc(OCCN4CCCC4)cc3)nc12`, for which the Kd in assay [1] was > 30 µM (inactive); in assay [2] it was > 30 µM (inactive); in assay [3], 0.002 µM (active); in assay [4], > 30 µM (inactive); in assay [5] it was > 30 µM (inactive); in assay [6], > 30 µM (inactive). For the same molecule, the Kd in assay [7], in [8], in [9] and in assay [10] was > 30 µM (inactive) each time.

For the molecule `C=CC(=O)N1CCC(Oc2cc3c(Nc4ccc(Cl)c(Cl)c4F)ncnc3cc2OC)CC1` [POZIOTINIB], the Kd is > 30 µM (inactive) in [1]; > 30 µM (inactive) in assay [2]; 2.24 µM (active) in assay [3]; > 30 µM (inactive) in [4]; > 30 µM (inactive) in [5]; > 30 µM (inactive) in assay [6]. The Kd in assay [7], in [8], in assay [9] and in assay [10] was > 30 µM (inactive) each time.

For the molecule `O=C1NC(=O)/C(=C/c2ccc3nccc(-c4ccncc4)c3c2)S1` [GSK-1059615], the Kd in assay [1], in assay [2], in [3], in assay [4], in assay [5] and in assay [6] was > 30 µM (inactive) each time. Also, the Kd in assay [7], in assay [8], in assay [9] and in [10] was > 30 µM (inactive) in each case.

As to `CC[C@@H]1C(=O)N(C)c2cnc(Nc3ccc(C(=O)N[C@H]4CC[C@H](N5CCN(CC6CC6)CC5)CC4)cc3OC)nc2N1C(C)C` [VOLASERTIB], the Kd in assay [1], in [2], in assay [3], in [4], in [5] and in [6] was > 30 µM (inactive) each time. Further, the Kd is > 30 µM (inactive) in assay [7], 0.195 µM (active) in [8], > 30 µM (inactive) in [9] and > 30 µM (inactive) in assay [10].

For the molecule `O=c1sn(-c2cccc3ccccc23)c(=O)n1Cc1ccccc1` [TIDEGLUSIB], the Kd in assay [1], in assay [2], in assay [3], in assay [4], in assay [5] and in assay [6] was > 30 µM (inactive) in each case. The Kd in assay [7], in [8], in assay [9] and in [10] was > 30 µM (inactive) each time.

As for `CC(C)Nc1cc(-c2c[nH]c(C(=O)N[C@H](CO)c3cccc(Cl)c3)c2)c(Cl)cn1` [ULIXERTINIB], the Kd in assay [1], in assay [2], in assay [3], in assay [4], in [5] and in [6] was > 30 µM (inactive) throughout. Also, the Kd in assay [7], in [8], in [9] and in [10] was > 30 µM (inactive) in each case.

The values above are taken from ChEMBL document CHEMBL3991601, “The target landscape of clinical kinase drugs” (Science, 2017).
